Measurements reported in US10894788B2, “Inhibitors of cyclin-dependent kinases” (Kinnate Biopharma Inc., priority 2018, dated 2021).
pIC50: −log10 of the molar value. Where two headings read alike, the source gives them in different places.

Molecular target: CDK12 wt/CycK (Homo sapiens (Human), UniProt Q9NYV4)
Test: Radiometric protein kinase assay (33PanQinase Activity Assay), Assay Condition A (thiol containing conditions)
Type: biochemical
Protocol: Example 1—Assay Condition A (Thiol Containing Conditions)
Objective: The IC50 profile of test compounds was determined using three protein kinases.
Test compounds: The compounds were provided as pre-weighed powders in vials. The compounds were dissolved to 1×10^−02M by adding DMSO. 100 μl of each of the resulting stock solutions were transferred into column 2 of four 96 well “master plates”.
Prior to testing, the 1×10^−02M stock solutions in column 2 of the master plates were subjected to a serial, semi-logarithmic dilution using 100% DMSO as a solvent. […] Column 1 and 7 were filled with 100% DMSO as controls. Subsequently, 2×10 μl from each well of the serial diluted copy plates were aliquoted with a 96 channel pipettor into two identical sets of “compound dilution plates”.
In the process, 90 μl H2O were added to each well of a set of compound dilution plates. To minimize potential precipitation, the H2O was added to each plate only a few minutes before the transfer of the compound solutions into the assay plates. Each plate was shaken thoroughly, resulting in a “compound dilution plate/10% DMSO”.
For the assays, 5 μl solution from each well of the compound dilution plates/10% DMSO were transferred into the assay plates. The final volume of the assay was 50 μl. All compounds were tested at 10 final assay concentrations in the range from 1×10^−04M to 3×10^−09M, in singlicate. The final DMSO concentration in the reaction cocktails was 1% in all cases.
Recombinant protein kinases: All protein kinases were expressed in Sf9 insect cells or in E. coli as recombinant GST-fusion proteins or His-tagged proteins, either as full-length or enzymatically active fragments. All kinases were produced from human cDNAs and purified by either GSH-affinity chromatography or immobilized metal. Affinity tags were removed from a number of kinases during purification. The purity of the protein kinases was examined by SDS-PAGE/Coomassie staining, the identity was checked by mass spectroscopy.
Protein kinase assay: A radiometric protein kinase assay (^33PanQinase® Activity Assay) was used for measuring the kinase activity of the three protein kinases. All kinase assays were performed in 96-well FlashPlates™ from PerkinElmer (Boston, Mass., USA) in a 50 μl reaction volume. The reaction cocktail was pipetted in four steps in the following order: • 20 μl of assay buffer (standard buffer) • 5 μl of ATP solution (in H2O) • 5 μl of test compound (in 10% DMSO) • 20 μl enzyme/substrate mix
The following amounts of enzyme and substrate were used per well:
The reaction cocktails were incubated at 30° C. for 60 minutes. The reaction was stopped with 50 μl of 2% (v/v) H3PO4, plates were aspirated and washed two times with 200 μl 0.9% (w/v) NaCl. Incorporation of ^33Pi was determined with a microplate scintillation counter (Microbeta, Wallac). All assays were performed with a BeckmanCoulter/SAGIAN™ Core System.
Evaluation of raw data: The median value of the counts in column 1 (n=8) of each assay plate was defined as “low control”. This value reflects unspecific binding of radioactivity to the plate in the absence of a protein kinase but in the presence of the substrate. The median value of the counts in column 7 of each assay plate (n=8) was taken as the “high control”, i.e. full activity in the absence of any inhibitor. The difference between high and low control was taken as 100% activity.
As part of the data evaluation the low control value from a particular plate was subtracted from the high control value as well as from all 80 “compound values” of the corresponding plate. The residual activity (in %) for each well of a particular plate was calculated by using the following formula: Res. Activity (%)=100×[(cpm of compound−low control)/(high control−low control)]
The residual activities for each concentration and the compound IC50 values were calculated using Quattro Workflow V3.1.1 (Quattro Research GmbH, Munich, Germany).

[1] = thiol containing conditions (1.2 mM DTT), ATP 0.3 μM, read-out: CDK12 IC50 Condition A

Chain of CDK12 wt/CycK (Q9NYV4 whole entry): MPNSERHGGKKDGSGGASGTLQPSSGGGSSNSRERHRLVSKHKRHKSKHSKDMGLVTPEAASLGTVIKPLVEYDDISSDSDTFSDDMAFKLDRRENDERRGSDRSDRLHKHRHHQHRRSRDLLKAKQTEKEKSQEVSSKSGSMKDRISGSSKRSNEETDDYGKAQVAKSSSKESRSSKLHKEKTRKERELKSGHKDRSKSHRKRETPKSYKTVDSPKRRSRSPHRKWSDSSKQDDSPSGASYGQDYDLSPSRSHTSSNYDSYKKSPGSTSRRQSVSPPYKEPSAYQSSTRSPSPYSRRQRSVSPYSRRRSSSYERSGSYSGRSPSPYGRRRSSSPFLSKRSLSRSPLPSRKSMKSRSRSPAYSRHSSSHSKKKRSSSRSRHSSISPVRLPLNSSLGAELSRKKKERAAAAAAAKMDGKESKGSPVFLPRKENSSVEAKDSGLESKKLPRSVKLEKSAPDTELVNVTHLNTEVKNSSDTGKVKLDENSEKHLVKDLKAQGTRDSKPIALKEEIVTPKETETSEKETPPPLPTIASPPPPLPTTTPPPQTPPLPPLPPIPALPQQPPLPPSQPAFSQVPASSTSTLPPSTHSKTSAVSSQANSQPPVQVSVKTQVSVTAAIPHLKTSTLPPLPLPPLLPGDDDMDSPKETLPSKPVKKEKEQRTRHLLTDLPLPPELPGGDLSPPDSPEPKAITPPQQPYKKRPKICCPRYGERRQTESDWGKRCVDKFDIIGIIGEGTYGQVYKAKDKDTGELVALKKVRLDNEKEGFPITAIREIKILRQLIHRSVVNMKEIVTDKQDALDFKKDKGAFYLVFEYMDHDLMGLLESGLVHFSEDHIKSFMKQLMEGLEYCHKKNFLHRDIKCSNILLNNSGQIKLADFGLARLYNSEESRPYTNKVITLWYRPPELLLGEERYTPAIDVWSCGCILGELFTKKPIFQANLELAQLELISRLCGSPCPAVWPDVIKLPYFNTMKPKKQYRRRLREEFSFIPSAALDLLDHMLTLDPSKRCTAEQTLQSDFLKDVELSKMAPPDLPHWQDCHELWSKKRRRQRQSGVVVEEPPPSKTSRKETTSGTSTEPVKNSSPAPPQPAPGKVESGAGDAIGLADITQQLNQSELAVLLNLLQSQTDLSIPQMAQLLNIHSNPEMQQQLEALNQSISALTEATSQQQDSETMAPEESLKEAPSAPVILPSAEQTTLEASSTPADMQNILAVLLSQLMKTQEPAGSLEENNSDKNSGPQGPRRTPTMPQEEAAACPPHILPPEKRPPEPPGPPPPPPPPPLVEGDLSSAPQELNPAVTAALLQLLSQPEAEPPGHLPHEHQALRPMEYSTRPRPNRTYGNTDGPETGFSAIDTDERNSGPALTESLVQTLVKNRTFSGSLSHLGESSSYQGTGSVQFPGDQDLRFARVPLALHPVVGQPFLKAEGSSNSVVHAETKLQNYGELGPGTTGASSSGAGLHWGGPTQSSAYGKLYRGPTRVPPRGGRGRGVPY
Chain of CDK12 wt/CycK (O75909 whole entry partner): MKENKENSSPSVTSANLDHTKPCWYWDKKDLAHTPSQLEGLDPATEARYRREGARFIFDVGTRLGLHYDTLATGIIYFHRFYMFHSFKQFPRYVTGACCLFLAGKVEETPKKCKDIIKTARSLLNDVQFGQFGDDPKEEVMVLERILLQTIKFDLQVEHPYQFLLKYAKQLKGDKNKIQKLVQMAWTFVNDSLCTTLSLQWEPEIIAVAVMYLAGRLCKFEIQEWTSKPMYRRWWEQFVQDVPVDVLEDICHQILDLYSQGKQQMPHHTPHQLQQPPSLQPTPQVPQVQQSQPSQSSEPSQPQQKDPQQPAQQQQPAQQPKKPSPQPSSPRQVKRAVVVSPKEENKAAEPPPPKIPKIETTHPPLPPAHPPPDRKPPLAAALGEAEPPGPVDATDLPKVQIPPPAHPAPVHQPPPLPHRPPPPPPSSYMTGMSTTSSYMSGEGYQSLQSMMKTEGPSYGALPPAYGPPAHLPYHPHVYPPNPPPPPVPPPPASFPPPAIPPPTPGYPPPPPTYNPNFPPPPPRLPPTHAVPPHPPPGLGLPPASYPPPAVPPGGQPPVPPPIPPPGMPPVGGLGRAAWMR

pIC50 [1] | SMILES | pIC50
6.00 to 7.00 | C/C=C/C(=O)Nc1ccc(C(=O)N2CC[C@@H](Nc3ncc(Cl)cn3)C2)cc1 [Example 131, (R,E)-N-(4-(3-((5-chloropyrimidin-2-yl)amino)pyrrolidine-1-carbonyl)phenyl)but-2-enamide] | 
6.00 to 7.00 | N#CCC(=O)Nc1ccc(C(=O)N2CC[C@@H](Nc3ncc(Cl)cn3)C2)cc1 [Example 133, (R)—N-(4-(3-((5-chloropyrimidin-2-yl)amino)pyrrolidine-1-carbonyl)phenyl)-2-cyanoacetamide] | 
> 7.00 | C=CC(=O)Nc1ccc(C(=O)N2CC[C@@H](Nc3ncc(Cl)c(OCCO)n3)C2)cc1 [Example 137, (R)—N-(4-(3-((5-chloro-4-(2-hydroxyethoxy)pyrimidin-2-yl)amino)pyrrolidine-1-carbonyl)phenyl)acrylamide] | 
> 7.00 | [2H]c1nc(N[C@@H]2CCN(C(=O)c3ccc(NC(=O)C=C)cc3)C2)nc(OC([2H])([2H])[2H])c1Cl [Example 138, (R)—N-(4-(3-((5-chloro-4-deutero-6-(trideuteromethoxy)pyrimidin-2-yl)amino)pyrrolidine-1-carbonyl)phenyl)acrylamide] | 
5.00 to 6.00 | O=C(Nc1ccc(C(=O)N2CC[C@@H](Nc3ncc(Cl)cn3)C2)cc1)C1CO1 (stereo partly drawn) [Example 141, N-(4-((R)-3-((5-chloropyrimidin-2-yl)amino)pyrrolidine-1-carbonyl)phenyl)oxirane-2-carboxamide] | 
5.00 to 6.00 | COc1nc(N[C@@H]2CCN(C(=O)c3ccc(NC(=O)C4CO4)cc3)C2)ncc1Cl (stereo partly drawn) [Example 142, N-(4-((R)-3-((5-chloro-4-methoxypyrimidin-2-yl)amino)pyrrolidine-1-carbonyl)phenyl)oxirane-2-carboxamide] | 
6.00 to 7.00 | C/C=C/C(=O)Nc1ccc(C(=O)N2CC[C@@H](Nc3ncc(Cl)c(OC)n3)C2)nc1 [Example 150, (R,E)-N-(6-(3-((5-chloro-4-methoxypyrimidin-2-yl)amino)pyrrolidine-1-carbonyl)pyridin-3-yl)but-2-enamide] | 
4.52 to 5.00 | C=CC(=O)Nc1ccc(C(=O)N2CC[C@H](Nc3ncc(Cl)cn3)C2)cc1 [Example 155, (S)—N-(4-(3-((5-chloropyrimidin-2-yl)amino)pyrrolidine-1-carbonyl)phenyl)acrylamide] | 
4.52 to 5.00 | C=CC(=O)Nc1ccc(C(=O)N2CC[C@@H](Nc3ncc(C#N)c(OC)n3)C2)cc1 [Example 160, (R)—N-(4-(3-((5-cyano-4-methoxypyrimidin-2-yl)amino)pyrrolidine-1-carbonyl)phenyl)acrylamide] | 

More lines, now with the values behind:

SMILES | pIC50 [1] | pIC50
C=CC(=O)N1CCc2ccc(C(=O)N3CC[C@@H](Nc4ncc(Cl)cn4)C3)cc2C1 [Example 130, (R)-1-(7-(3-((5-chloropyrimidin-2-yl)amino)pyrrolidine-1-carbonyl)-3,4-dihydroisoquinolin-2(1H)-yl)prop-2-en-1-one] | 6.00 to 7.00 | 
C=CC(=O)N1CCc2cc(C(=O)N3CC[C@@H](Nc4ncc(Cl)cn4)C3)ccc2C1 [Example 132, (R)-1-(6-(3-((5-chloropyrimidin-2-yl)amino)pyrrolidine-1-carbonyl)-3,4-dihydroisoquinolin-2(1H)-yl)prop-2-en-1-one] | 5.00 to 6.00 | 
CN(C)/C=C(\C#N)C(=O)Nc1ccc(C(=O)N2CC[C@@H](Nc3ncc(Cl)cn3)C2)cc1 [Example 134, (R)—N-(4-(3-((5-chloropyrimidin-2-yl)amino)pyrrolidine-1-carbonyl)phenyl)-2-cyano-3-(dimethylamino)acrylamide] | 6.00 to 7.00 | 
CN(C)C=C(C#N)C(=O)Nc1cccc(C(=O)N2CC[C@@H](Nc3ncc(Cl)cn3)C2)c1 [Example 135, (R)—N-(3-(3-((5-chloropyrimidin-2-yl)amino)pyrrolidine-1-carbonyl)phenyl)-2-cyano-3-(dimethylamino)acrylamide] | 5.00 to 6.00 | 
C=CC(=O)N1CCc2ccc(C(=O)N3CC[C@@H](Nc4ncc(Cl)cn4)C3)cc21 [Example 136, (R)-1-(6-(3-((5-chloropyrimidin-2-yl)amino)pyrrolidine-1-carbonyl)indolin-1-yl)prop-2-en-1-one] | 6.00 to 7.00 | 
O=C(c1ccc(N2C(=O)C=CC2=O)cc1)N1CC[C@@H](Nc2ncc(Cl)cn2)C1 [Example 140, (R)-1-(4-(3-((5-chloropyrimidin-2-yl)amino)pyrrolidine-1-carbonyl)phenyl)-1H-pyrrole-2,5-dione] | 5.00 to 6.00 | 
C=CC(=O)Nc1ccc(C(=O)N2CC[C@@H](Nc3ncc(Cl)c(OCC)n3)C2)cc1OC1CCOC1 (stereo partly drawn) [Example 143, N-(4-((R)-3-((5-chloro-4-ethoxypyrimidin-2-yl)amino)pyrrolidine-1-carbonyl)-2-((tetrahydrofuran-3-yl)oxy)phenyl)acrylamide] | > 7.00 | 
C=CC(=O)Nc1ccc(C(=O)N2CC[C@@H](Nc3ncc(Cl)c(OCC)n3)C2)cc1OCCN(C)C [Example 144, (R)—N-(4-(3-((5-chloro-4-ethoxypyrimidin-2-yl)amino)pyrrolidine-1-carbonyl)-2-(2-(dimethylamino)ethoxy)phenyl)acrylamide] |  | > 7.00
C=CC(=O)Nc1ccc(C(=O)N2CC[C@@H](Nc3ccc(C#N)cn3)C2)cc1 [Example 147, (R)—N-(4-(3-((5-cyanopyridin-2-yl)amino)pyrrolidine-1-carbonyl)phenyl)acrylamide] |  | 6.00 to 7.00
C=CC(=O)Nc1ccc(C(=O)N2CC[C@@H](Nc3ncc(C#N)cn3)C2)cc1 [Example 148, (R)—N-(4-(3-((5-cyanopyrimidin-2-yl)amino)pyrrolidine-1-carbonyl)phenyl)acrylamide] | 6.00 to 7.00 | 
CC#CC(=O)Nc1ccc(C(=O)N2CC[C@@H](Nc3ncc(Cl)c(OC)n3)C2)cc1 [Example 151, (R)—N-(4-(3-((5-chloro-4-methoxypyrimidin-2-yl)amino)pyrrolidine-1-carbonyl)phenyl)but-2-ynamide] | > 7.00 | 
C=CC(=O)Nc1ccc(C(=O)N2CC[C@@H](Nc3ncc(Cl)c(OCC)n3)C2)nc1 [Example 152, (R)—N-(6-(3-((5-chloro-4-ethoxypyrimidin-2-yl)amino)pyrrolidine-1-carbonyl)pyridin-3-yl)acrylamide] | > 7.00 | 
C=CC(=O)Nc1ccc(C(=O)N2CC[C@@H](Nc3ncc(Cl)c(OCCOCC)n3)C2)cc1 [Example 153, (R)—N-(4-(3-((5-chloro-4-(2-ethoxyethoxy)pyrimidin-2-yl)amino)pyrrolidine-1-carbonyl)phenyl)acrylamide] | 6.00 to 7.00 | 
[2H]C([2H])([2H])Oc1nc(N[C@@H]2CCN(C(=O)c3ccc(NC(=O)C#C)cc3)C2)ncc1Cl [Example 154, (R)—N-(4-(3-((5-chloro-4-(trideuteromethoxy)pyrimidin-2-yl)amino)pyrrolidine-1-carbonyl)phenyl)propiolamide] |  | > 7.00
C=CC(=O)Nc1ccc(C(=O)N2CC[C@@H](Nc3ncc(Br)cn3)C2)cc1OCCN1CCOCC1 [Example 156, (R)—N-(4-(3-((5-bromopyrimidin-2-yl)amino)pyrrolidine-1-carbonyl)-2-(2-morpholinoethoxy)phenyl)acrylamide] |  | 6.00 to 7.00
C=CC(=O)Nc1ccc(C(=O)N2CC[C@@H](Nc3ncc(Br)cn3)C2)cc1N1CCC(N(C)C)CC1 [Example 158, (R)—N-(4-(3-((5-bromopyrimidin-2-yl)amino)pyrrolidine-1-carbonyl)-2-(4-(dimethylamino)piperidin-1-yl)phenyl)acrylamide] | 6.00 to 7.00 | 
C=CC(=O)Nc1ccc(C(=O)N2CC[C@@H](Nc3ncc(Br)cn3)C2)cc1N(C)CCN(C)C [Example 159, (R)—N-(4-(3-((5-bromopyrimidin-2-yl)amino)pyrrolidine-1-carbonyl)-2-((2-(dimethylamino)ethyl)(methyl)amino)phenyl)acrylamide] | 5.00 to 6.00 | 
